Data from patent US10131652B2, “Pyrimidinyloxy benzene derivatives as herbicides” (E. I. DU PONT DE NEMOURS AND COMPANY, priority 2014, dated 2018).
Like-named read-outs stand apart in the source and are kept apart here.

How the values were obtained:
Assay in all cases: Test E pre-/postemergence plant response
Format in all cases: in vivo
[1] = tested on: Italian ryegrass (Lolium multiflorum); conditions: scale 0 to 100, read-out: Plant response rating, Ryegrass, Italian; for pest or weed control at 16 g/ha: 16 g ai/ha; for pest or weed control at 31 g/ha: 31 g ai/ha; for pest or weed control at 62 g/ha: 62 g ai/ha; for pest or weed control at 125 g/ha: 125 g ai/ha
Method in brief: (§1)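 Pre-emergence: seeds sown in silt loam soil and sprayed with test chemicals in a non-phytotoxic solvent/surfactant mix. Post-emergence: plants at 2–18 cm (1- to 4-leaf stage) in peat/vermiculite medium treated with the same formulation. Visual rating versus controls after 7–21 days, 0 (no effect) to 100 (complete control).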

[2] = tested on: chickweed (common chickweed, Stellaria media); conditions: scale 0 to 100, read-out: Plant response rating, Chickweed; for pest or weed control at 16 g/ha: 16 g ai/ha; for pest or weed control at 31 g/ha: 31 g ai/ha; for pest or weed control at 62 g/ha: 62 g ai/ha; for pest or weed control at 125 g/ha: 125 g ai/ha
Method in brief: as §1

[3] = tested on: field violet (Viola arvensis); conditions: scale 0 to 100, read-out: Plant response rating, Field Violet; for pest or weed control at 16 g/ha: 16 g ai/ha; for pest or weed control at 31 g/ha: 31 g ai/ha; for pest or weed control at 62 g/ha: 62 g ai/ha; for pest or weed control at 125 g/ha: 125 g ai/ha
Method in brief: as §1

[4] = tested on: galium (catchweed bedstraw, Galium aparine); conditions: scale 0 to 100, read-out: Plant response rating, Galium; for pest or weed control at 16 g/ha: 16 g ai/ha; for pest or weed control at 31 g/ha: 31 g ai/ha; for pest or weed control at 62 g/ha: 62 g ai/ha; for pest or weed control at 125 g/ha: 125 g ai/ha
Method in brief: as §1

[5] = tested on: green foxtail (Setaria viridis); conditions: scale 0 to 100, read-out: Plant response rating, Foxtail, Green; for pest or weed control at 16 g/ha: 16 g ai/ha; for pest or weed control at 31 g/ha: 31 g ai/ha; for pest or weed control at 62 g/ha: 62 g ai/ha; for pest or weed control at 125 g/ha: 125 g ai/ha
Method in brief: as §1

[6] = tested on: lambsquarters (Chenopodium album); conditions: scale 0 to 100, read-out: Plant response rating, Lambsquarters; for pest or weed control at 16 g/ha: 16 g ai/ha; for pest or weed control at 31 g/ha: 31 g ai/ha; for pest or weed control at 62 g/ha: 62 g ai/ha; for pest or weed control at 125 g/ha: 125 g ai/ha
Method in brief: as §1

[7] = tested on: oilseed rape (Brassica napus); conditions: scale 0 to 100, read-out: Plant response rating, Oilseed Rape; for plant injury at 16 g/ha: 16 g ai/ha; for plant injury at 31 g/ha: 31 g ai/ha; for plant injury at 62 g/ha: 62 g ai/ha; for plant injury at 125 g/ha: 125 g ai/ha
Method in brief: as §1

[8] = tested on: pigweed (Amaranthus retroflexus); conditions: scale 0 to 100, read-out: Plant response rating, Pigweed; for pest or weed control at 16 g/ha: 16 g ai/ha; for pest or weed control at 31 g/ha: 31 g ai/ha; for pest or weed control at 62 g/ha: 62 g ai/ha; for pest or weed control at 125 g/ha: 125 g ai/ha
Method in brief: as §1

[9] = tested on: spring wheat (Triticum aestivum); conditions: scale 0 to 100, read-out: Plant response rating, Wheat, Spring; for plant injury at 16 g/ha: 16 g ai/ha; for plant injury at 62 g/ha: 62 g ai/ha; for plant injury at 125 g/ha: 125 g ai/ha
Method in brief: as §1

[10] = tested on: winter barley (Hordeum vulgare); conditions: scale 0 to 100, read-out: Plant response rating, Barley, Winter; for plant injury at 16 g/ha: 16 g ai/ha; for plant injury at 31 g/ha: 31 g ai/ha; for plant injury at 62 g/ha: 62 g ai/ha; for plant injury at 125 g/ha: 125 g ai/ha
Method in brief: as §1

SMILES: FC(F)c1cc(-c2ccccc2Oc2ncc(Br)cn2)no1 [Compound 62, 5-bromo-2-[2-[5-(difluoromethyl)-3-isoxazolyl]phenoxy]pyrimidine]
- pest or weed control at 16 g/ha ([1]; post-emergence, Postemergence): 10%
- pest or weed control at 31 g/ha ([1]; post-emergence, Postemergence): 20%
- pest or weed control at 62 g/ha ([1]; post-emergence, Postemergence): 30%
- pest or weed control at 125 g/ha ([1]; post-emergence, Postemergence): 35%
- pest or weed control at 16 g/ha ([1]; pre-emergence, Preemergence): 0%
- pest or weed control at 31 g/ha ([1]; pre-emergence, Preemergence): 0%
- pest or weed control at 62 g/ha ([1]; pre-emergence, Preemergence): 15%
- pest or weed control at 125 g/ha ([1]; pre-emergence, Preemergence): 25%
- pest or weed control at 16 g/ha ([2]; post-emergence, Postemergence): 65%
- pest or weed control at 31 g/ha ([2]; post-emergence, Postemergence): 70%
- pest or weed control at 62 g/ha ([2]; post-emergence, Postemergence): 80%
- pest or weed control at 125 g/ha ([2]; post-emergence, Postemergence): 90%
- pest or weed control at 16 g/ha ([2]; pre-emergence, Preemergence): 65%
- pest or weed control at 31 g/ha ([2]; pre-emergence, Preemergence): 75%
- pest or weed control at 62 g/ha ([2]; pre-emergence, Preemergence): 100%
- pest or weed control at 125 g/ha ([2]; pre-emergence, Preemergence): 100%
- pest or weed control at 16 g/ha ([3]; post-emergence, Postemergence): 60%
- pest or weed control at 31 g/ha ([3]; post-emergence, Postemergence): 65%
- pest or weed control at 62 g/ha ([3]; post-emergence, Postemergence): 70%
- pest or weed control at 125 g/ha ([3]; post-emergence, Postemergence): 85%
- pest or weed control at 16 g/ha ([3]; pre-emergence, Preemergence): 0%
- pest or weed control at 31 g/ha ([3]; pre-emergence, Preemergence): 10%
- pest or weed control at 62 g/ha ([3]; pre-emergence, Preemergence): 35%
- pest or weed control at 125 g/ha ([3]; pre-emergence, Preemergence): 100%
- pest or weed control at 16 g/ha ([4]; post-emergence, Postemergence): 70%
- pest or weed control at 31 g/ha ([4]; post-emergence, Postemergence): 70%
- pest or weed control at 62 g/ha ([4]; post-emergence, Postemergence): 75%
- pest or weed control at 125 g/ha ([4]; post-emergence, Postemergence): 90%
- pest or weed control at 16 g/ha ([4]; pre-emergence, Preemergence): 5%
- pest or weed control at 31 g/ha ([4]; pre-emergence, Preemergence): 60%
- pest or weed control at 62 g/ha ([4]; pre-emergence, Preemergence): 65%
- pest or weed control at 125 g/ha ([4]; pre-emergence, Preemergence): 100%
- pest or weed control at 16 g/ha ([5]; post-emergence, Postemergence): 15%
- pest or weed control at 31 g/ha ([5]; post-emergence, Postemergence): 20%
- pest or weed control at 62 g/ha ([5]; post-emergence, Postemergence): 25%
- pest or weed control at 125 g/ha ([5]; post-emergence, Postemergence): 65%
- pest or weed control at 16 g/ha ([5]; pre-emergence, Preemergence): 20%
- pest or weed control at 31 g/ha ([5]; pre-emergence, Preemergence): 40%
- pest or weed control at 62 g/ha ([5]; pre-emergence, Preemergence): 65%
- pest or weed control at 125 g/ha ([5]; pre-emergence, Preemergence): 85%
- pest or weed control at 16 g/ha ([6]; post-emergence, Postemergence): 75%
- pest or weed control at 31 g/ha ([6]; post-emergence, Postemergence): 95%
- pest or weed control at 62 g/ha ([6]; post-emergence, Postemergence): 95%
- pest or weed control at 125 g/ha ([6]; post-emergence, Postemergence): 95%
- pest or weed control at 16 g/ha ([6]; pre-emergence, Preemergence): 35%
- pest or weed control at 31 g/ha ([6]; pre-emergence, Preemergence): 85%
- pest or weed control at 62 g/ha ([6]; pre-emergence, Preemergence): 95%
- pest or weed control at 125 g/ha ([6]; pre-emergence, Preemergence): 100%
- plant injury at 16 g/ha ([7]; post-emergence, Postemergence): 65%
- plant injury at 31 g/ha ([7]; post-emergence, Postemergence): 80%
- plant injury at 62 g/ha ([7]; post-emergence, Postemergence): 80%
- plant injury at 125 g/ha ([7]; post-emergence, Postemergence): 100%
- plant injury at 16 g/ha ([7]; pre-emergence, Preemergence): 10%
- plant injury at 31 g/ha ([7]; pre-emergence, Preemergence): 25%
- plant injury at 62 g/ha ([7]; pre-emergence, Preemergence): 65%
- plant injury at 125 g/ha ([7]; pre-emergence, Preemergence): 100%
- pest or weed control at 16 g/ha ([8]; post-emergence, Postemergence): 90%
- pest or weed control at 31 g/ha ([8]; post-emergence, Postemergence): 90%
- pest or weed control at 62 g/ha ([8]; post-emergence, Postemergence): 95%
- pest or weed control at 125 g/ha ([8]; post-emergence, Postemergence): 95%
- pest or weed control at 16 g/ha ([8]; pre-emergence, Preemergence): 95%
- pest or weed control at 31 g/ha ([8]; pre-emergence, Preemergence): 100%
- pest or weed control at 62 g/ha ([8]; pre-emergence, Preemergence): 100%
- pest or weed control at 125 g/ha ([8]; pre-emergence, Preemergence): 100%
- plant injury at 16 g/ha ([9]; post-emergence, Postemergence): 5%
- plant injury at 31 g/ha ([9]; post-emergence, 31 g ai/ha, Postemergence): 20%
- plant injury at 62 g/ha ([9]; post-emergence, Postemergence): 25%
- plant injury at 125 g/ha ([9]; post-emergence, Postemergence): 40%
- plant injury at 16 g/ha ([9]; pre-emergence, Preemergence): 0%
- plant injury at 62 g/ha ([9]; pre-emergence, Preemergence): 0%
- plant injury at 125 g/ha ([9]; pre-emergence, Preemergence): 10%
- plant injury at 16 g/ha ([10]; post-emergence, Postemergence): 5%
- plant injury at 31 g/ha ([10]; post-emergence, Postemergence): 10%
- plant injury at 62 g/ha ([10]; post-emergence, Postemergence): 20%
- plant injury at 125 g/ha ([10]; post-emergence, Postemergence): 35%
- plant injury at 16 g/ha ([10]; pre-emergence, Preemergence): 0%
- plant injury at 31 g/ha ([10]; pre-emergence, Preemergence): 0%
- plant injury at 62 g/ha ([10]; pre-emergence, Preemergence): 5%
- plant injury at 125 g/ha ([10]; pre-emergence, Preemergence): 5%
